Source: patent publication US9862717B2 (Merck Patent GmbH, priority 2014, dated 2018)

What follows are molecules tested against T1, CDK8/CycC (Homo sapiens, UniProt P49336) (assay: FRET based Lanthascreen binding competition assay for CDK8 inhibitory activity). Conditions: CDK8 co-expressed with CycC; class symbols.
T1 construct: purchased Invitrogen PV4402
T1 sequence (P49336 whole entry): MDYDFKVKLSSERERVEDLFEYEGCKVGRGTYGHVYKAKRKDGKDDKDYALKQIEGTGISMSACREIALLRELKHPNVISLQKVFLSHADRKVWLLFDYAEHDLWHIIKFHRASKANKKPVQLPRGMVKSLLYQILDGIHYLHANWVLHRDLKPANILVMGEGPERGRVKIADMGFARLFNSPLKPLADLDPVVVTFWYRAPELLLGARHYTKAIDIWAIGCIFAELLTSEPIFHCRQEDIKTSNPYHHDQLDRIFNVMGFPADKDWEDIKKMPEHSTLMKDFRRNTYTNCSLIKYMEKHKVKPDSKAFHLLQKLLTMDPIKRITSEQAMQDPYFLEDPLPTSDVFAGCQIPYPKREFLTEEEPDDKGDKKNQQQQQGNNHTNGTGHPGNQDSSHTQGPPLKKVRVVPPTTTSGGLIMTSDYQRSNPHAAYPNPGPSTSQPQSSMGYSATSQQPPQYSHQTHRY
T1 sequence (P24863 whole entry partner): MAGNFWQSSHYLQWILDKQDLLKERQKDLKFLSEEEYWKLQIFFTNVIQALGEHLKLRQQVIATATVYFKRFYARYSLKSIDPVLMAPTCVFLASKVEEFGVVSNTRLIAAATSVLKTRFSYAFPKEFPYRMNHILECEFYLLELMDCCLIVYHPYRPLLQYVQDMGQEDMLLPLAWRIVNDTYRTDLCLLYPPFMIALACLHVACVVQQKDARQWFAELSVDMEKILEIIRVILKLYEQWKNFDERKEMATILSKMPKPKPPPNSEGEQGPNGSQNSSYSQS
Outline: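 Competition binding of a dye-labeled ATP-competitive Alexa647 probe to CDK8 co-expressed with CycC, Eu-labeled via biotinylated anti-His antibody/streptavidin.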
An IC50 of 0.1 to 1 µM was found for Cc1n[nH]c2ncc(C(=O)N3CCCC3c3ccccc3OCC(F)(F)F)cc12 (stereo not drawn) [compound 162, (3-Methyl-1H-pyrazolo[3,4-b]pyridin-5-yl)-{2-[2-(2,2,2-trifluoro-ethoxy)-phenyl]-pyrrolidin-1-yl}-methanone] in this work.

Same assay, conditions: CDK8 co-expressed with CycC; class symbols; read-out: IC50
An IC50 of 1 to 10 µM was found for Cc1ccc([C@H]2CCCN2C(=O)c2cnc3[nH]nc(C)c3c2)cc1 [compound 137, (3-Methyl-1H-pyrazolo[3,4-b]pyridin-5-yl)-((R)-2-p-tolyl-pyrrolidin-1-yl)-methanone] in this work.
An IC50 of 0.1 to 1 µM was found for Cc1n[nH]c2ncc(C(=O)N3CCC[C@@H](c4ccccc4)C3)cc12 [compound 139, (3-Methyl-1H-pyrazolo[3,4-b]pyridin-5-yl)-((S)-3-phenyl-piperidin-1-yl)-methanone] in this work.
An IC50 of 0.1 to 1 µM was found for COc1ccccc1C1CCCN1C(=O)c1cnc2[nH]nc(C)c2c1 (stereo not drawn) [compound 141, [2-(2-Methoxy-phenyl)-pyrrolidin-1-yl]-(3-methyl-1H-pyrazolo[3,4-b]pyridin-5-yl)-methanone] in this work.
An IC50 of 0.01 to 0.1 µM was found for COc1ccccc1[C@@H]1CCCN1C(=O)c1cnc2[nH]nc(C)c2c1 [compound 143, [(S)-2-(2-Methoxy-phenyl)-pyrrolidin-1-yl]-(3-methyl-1H-pyrazolo[3,4-b]pyridin-5-yl)-methanone] in this work.
An IC50 of 0.01 to 0.1 µM was found for Cc1n[nH]c2ncc(C(=O)N3CC[C@@H](N)[C@H]3c3ccc(F)cc3)cc12 [compound 144, [(2R,3R)-3-Amino-2-(4-fluoro-phenyl)-pyrrolidin-1-yl]-(3-methyl-1H-pyrazolo[3,4-b]pyridin-5-yl)-methanone] in this work.
An IC50 of 0.1 to 1 µM was found for Cc1n[nH]c2ncc(C(=O)N3C[C@@H](O)C[C@H]3c3ccc(F)cc3)cc12 [compound 145, [(2S,4S)-2-(4-Fluoro-phenyl)-4-hydroxy-pyrrolidin-1-yl]-(3-methyl-1H-pyrazolo[3,4-b]pyridin-5-yl)-methanone] in this work.
An IC50 of 0.1 to 1 µM was found for Nc1n[nH]c2ccc(C(=O)N3CCCC3c3cccc(Cl)c3)cc12 (stereo not drawn) [compound 147, (3-Amino-1H-indazol-5-yl)-[2-(3-chloro-phenyl)-pyrrolidin-1-yl]-methanone] in this work.
An IC50 of 0.1 to 1 µM was found for Nc1n[nH]c2ccc(C(=O)N3CCCC3c3ccccc3Cl)cc12 (stereo not drawn) [compound 148, (3-Amino-1H-indazol-5-yl)-[2-(2-chloro-phenyl)-pyrrolidin-1-yl]-methanone] in this work.
An IC50 of 0.1 to 1 µM was found for Cc1n[nH]c2ncc(C(=O)N3CCCCC[C@H]3c3cccc(F)c3)cc12 [compound 150, [(S)-2-(3-Fluoro-phenyl)-azepan-1-yl]-(3-methyl-1H-pyrazolo[3,4-b]pyridin-5-yl)-methanone] in this work.
An IC50 of less than 0.01 µM was found for O=C(c1cnc2[nH]nc(C3CC3)c2c1)N1CCC[C@H]1c1ccc(Cl)cc1 [compound 152, [(S)-2-(4-Chloro-phenyl)-pyrrolidin-1-yl]-(3-cyclopropyl-1H-pyrazolo[3,4-b]pyridin-5-yl)-methanone] in this work.
An IC50 of 0.1 to 1 µM was found for O=C(c1cnc2[nH]nc(C3CC3)c2c1)N1CCC[C@@H]1c1ccc(Cl)cc1 [compound 153, [(R)-2-(4-Chloro-phenyl)-pyrrolidin-1-yl]-(3-cyclopropyl-1H-pyrazolo[3,4-b]pyridin-5-yl)-methanone] in this work.
An IC50 of less than 0.01 µM was found for Cc1n[nH]c2ncc(C(=O)N3CCC[C@H]3c3ccc(C(F)(F)F)cc3)cc12 [compound 157, (3-Methyl-1H-pyrazolo[3,4-b]pyridin-5-yl)-[(S)-2-(4-trifluoromethyl-phenyl)-pyrrolidin-1-yl]-methanone] in this work.
An IC50 of 0.01 to 0.1 µM was found for Cc1n[nH]c2ncc(C(=O)N3CCC(C)C3c3ccc(C(F)(F)F)cc3)cc12 (stereo not drawn) [compound 159, (3-Methyl-1H-pyrazolo[3,4-b]pyridin-5-yl)-[3-methyl-2-(4-trifluoromethyl-phenyl)-pyrrolidin-1-yl]-methanone] in this work.
An IC50 of 0.1 to 1 µM was found for Cc1n[nH]c2ncc(C(=O)N3CC(C)CC3c3ccc(C(F)(F)F)cc3)cc12 (stereo not drawn) [compound 160, (3-Methyl-1H-pyrazolo[3,4-b]pyridin-5-yl)-[4-methyl-2-(4-trifluoromethyl-phenyl)-pyrrolidin-1-yl]-methanone] in this work.
An IC50 of 0.01 to 0.1 µM was found for Nc1n[nH]c2ccc(C(=O)N3CCCC3c3ccc(Cl)c(F)c3)cc12 (stereo not drawn) [compound 167, (3-Amino-1H-indazol-5-yl)-[2-(4-chloro-3-fluoro-phenyl)-pyrrolidin-1-yl] methanone] in this work.
An IC50 of 0.1 to 1 µM was found for O=C(c1cnc2[nH]nc(C3CC3)c2c1)N1CCCCC1c1ccccc1 (stereo not drawn) [compound 168, (3-Cyclopropyl-1H-pyrazolo[3,4-b]pyridin-5-yl)-(2-phenyl-piperidin-1-yl)-methanone] in this work.
An IC50 of 0.1 to 1 µM was found for O=C(c1cnc2[nH]nc(C(F)(F)F)c2c1)N1CCCCC1c1ccccc1 (stereo not drawn) [compound 169, (2-Phenyl-piperidin-1-yl)-(3-trifluoromethyl-1H-pyrazolo[3,4-b]pyridin-5-yl)-methanone] in this work.
An IC50 of less than 0.01 µM was found for Cc1n[nH]c2ncc(C(=O)N3CC[C@@H](C)[C@H]3c3ccc(C(F)(F)F)cc3)cc12 [compound 172, (3-Methyl-1H-pyrazolo[3,4-b]pyridin-5-yl)-[(2S,3R)-3-methyl-2-(4-trifluoromethyl-phenyl)-pyrrolidin-1-yl]-methanone] in this work.
An IC50 of 0.1 to 1 µM was found for Cc1n[nH]c2ncc(C(=O)N3CC[C@@H]3c3ccc(F)cc3)cc12 [compound 175, [(R)-2-(4-Fluoro-phenyl)-azetidin-1-yl]-(3-methyl-1H-pyrazolo[3,4-b]pyridin-5-yl)-methanone] in this work.
An IC50 of 0.01 to 0.1 µM was found for Cc1n[nH]c2ncc(C(=O)N3CCCC3c3ccc(Cl)c(F)c3)cc12 (stereo not drawn) [compound 179, [2-(4-Chloro-3-fluoro-phenyl)-pyrrolidin-1-yl]-(3-methyl-1H-pyrazolo[3,4-b]pyridin-5-yl)-methanone] in this work.
An IC50 of 1 to 10 µM was found for Cc1n[nH]c2ncc(C(=O)N3CCNC(c4ccccc4)C3)cc12 (stereo not drawn) [compound 182, (3-Methyl-1H-pyrazolo[3,4-b]pyridin-5-yl)-(3-phenyl-piperazin-1-yl)-methanone] in this work.
An IC50 of 0.1 to 1 µM was found for O=C(c1cnc2[nH]nc(C(F)(F)F)c2c1)N1CCCC[C@@H]1c1ccccc1 [compound 183, ((R)-2-Phenyl-piperidin-1-yl)-(3-trifluoromethyl-1H-pyrazolo[3,4-b]pyridin-5-yl)-methanone] in this work.
An IC50 of 0.1 to 1 µM was found for O=C(c1cnc2[nH]nc(C(F)(F)F)c2c1)N1CCCC[C@H]1c1ccccc1 [compound 184, ((S)-2-Phenyl-piperidin-1-yl)-(3-trifluoromethyl-1H-pyrazolo[3,4-b]pyridin-5-yl)-methanone] in this work.
An IC50 of 1 to 10 µM was found for Cc1n[nH]c2ncc(C(=O)N3C[C@@H](C(N)=O)[C@H](c4ccc(Cl)cc4)C3)cc12 [compound 185, (3S,4R)-4-(4-Chloro-phenyl)-1-(3-methyl-1H-pyrazolo[3,4-b]pyridine-5-carbonyl)-pyrrolidine-3-carboxylic acid amide] in this work.
An IC50 of 0.1 to 1 µM was found for Cc1n[nH]c2ncc(C(=O)N3C[C@H](C(N)=O)[C@@H](c4ccc(Cl)cc4)C3)cc12 [compound 186, (3R,4S)-4-(4-Chloro-phenyl)-1-(3-methyl-1H-pyrazolo[3,4-b]pyridine-5-carbonyl)-pyrrolidine-3-carboxylic acid amide] in this work.
An IC50 of 0.01 to 0.1 µM was found for Cc1n[nH]c2ncc(C(=O)N3CCCC3c3ccc(Cl)c(Cl)c3)cc12 (stereo not drawn) [compound 188, [2-(3,4-Dichloro-phenyl)-pyrrolidin-1-yl]-(3-methyl-1H-pyrazolo[3,4-b]pyridin-5-yl)-methanone] in this work.
An IC50 of less than 0.01 µM was found for CC(C)c1ccc([C@@H]2CCCN2C(=O)c2ccc3[nH]nc(N)c3c2)cc1 [compound 194, (3-Amino-1H-indazol-5-yl)-[(S)-2-(4-isopropyl-phenyl)-pyrrolidin-1-yl]-methanone] in this work.
An IC50 of 0.1 to 1 µM was found for CC(C)c1ccc([C@H]2CCCN2C(=O)c2ccc3[nH]nc(N)c3c2)cc1 [compound 195, (3-Amino-1H-indazol-5-yl)-[(R)-2-(4-isopropyl-phenyl)-pyrrolidin-1-yl]-methanone] in this work.
An IC50 of less than 0.01 µM was found for Cc1n[nH]c2ncc(C(=O)N3CCC[C@H]3c3ccc(C(C)C)cc3)cc12 [compound 196, [(S)-2-(4-Isopropyl-phenyl)-pyrrolidin-1-yl]-(3-methyl-1H-pyrazolo[3,4-b]pyridin-5-yl)-methanone] in this work.
An IC50 of 0.1 to 1 µM was found for Cc1n[nH]c2ncc(C(=O)N3CCC[C@@H]3c3ccc(C(C)C)cc3)cc12 [compound 197, [(R)-2-(4-Isopropyl-phenyl)-pyrrolidin-1-yl]-(3-methyl-1H-pyrazolo[3,4-b]pyridin-5-yl)-methanone] in this work.
An IC50 of 1 to 10 µM was found for Cc1n[nH]c2ncc(C(=O)N3CC[C@](O)(c4ccccc4)C3)cc12 [compound 198, ((S)-3-Hydroxy-3-phenyl-pyrrolidin-1-yl)-(3-methyl-1H-pyrazolo[3,4-b]pyridin-5-yl)-methanone] in this work.
An IC50 of 0.1 to 1 µM was found for Cc1n[nH]c2ncc(C(=O)N3CCC3c3ccc(F)cc3)cc12 (stereo not drawn) [compound 200, [2-(4-Fluoro-phenyl)-azetidin-1-yl]-(3-methyl-1H-pyrazolo[3,4-b]pyridin-5-yl)-methanone] in this work.
An IC50 of 1 to 10 µM was found for Cc1n[nH]c2cc(F)c(C(=O)N3CCC[C@@H]3c3ccc(Cl)cc3)cc12 [compound 203, [(R)-2-(4-Chloro-phenyl)-pyrrolidin-1-yl]-(6-fluoro-3-methyl-1H-indazol-5-yl)-methanone] in this work.
An IC50 of less than 0.01 µM was found for Cc1n[nH]c2ccc(C(=O)N3CC[C@H]3c3ccc(F)cc3)cc12 [compound 204, [(S)-2-(4-Fluoro-phenyl)-azetidin-1-yl]-(3-methyl-1H-indazol-5-yl)-methanone] in this work.

Same assay, conditions: IC50 [μM], CDK8 co-expressed with CycC; class symbols
An IC50 of 0.01 to 0.1 µM was found for O=C(c1ccc2[nH]ncc2c1)N1CCC[C@H]1c1ccc(Br)cc1 [compound 156] in this work.
An IC50 of less than 0.01 µM was found for Cc1n[nH]c2ccc(C(=O)N3CCOCC3c3ccc(Cl)cc3)cc12 (stereo not drawn) [compound 178] in this work.
An IC50 of 0.01 to 0.1 µM was found for Cc1n[nH]c2cnc(C(=O)N3CCC[C@H]3c3ccc(Cl)cc3)cc12 [compound 190, [(S)-2-(4-Chloro-phenyl)-pyrrolidin-1-yl]-(3-methyl-1H-pyrazolo[3,4-c]pyridin-5-yl)-methanone] in this work.
An IC50 of less than 0.01 µM was found for Cc1n[nH]c2ccc(C(=O)N3CC[C@H]3c3ccc(Cl)cc3)cc12 [compound 202, [(S)-2-(4-Chloro-phenyl)-azetidin-1-yl]-(3-methyl-1H-indazol-5-yl)-methanone] in this work.
